# Measurements as given in article PMC2745359, “Engineering and validation of a novel lipid thin film for biomembrane modeling in lipophilicity determination of drugs and xenobiotics” (Journal of Biological Engineering, 2009).
# How the values were obtained:
# [1] = parameters: method as in PMID 17767395; details: clinical use; cited from earlier work
# [2] = RPTLC lipophilicity determination on silica-supported leucaena oil (LO) lipid film
# From the text: (§1) Liquid paraffin in n-hexane (5% w/v) was used as coating solution of silica gel support, to produce the layer which was taken as benchmark. Thin film of liquid paraffin was placed on the silica surface by ascending development of the TLC plates in the coating solution and allowing the plates to air dry afterwards.
# (§2) The optimal film thickness was designed by testing the alternative films against array of LP benchmark requirements and constraint. Using nabumetone as model compound and varying the concentration of organic modifier (methanol) in the mobile phase, a plot of linear regression of Rm against methanol fraction was made for LP and all alternative LO layers. Rm was obtained from the expression [drawing 1] where Rf is the chromatographic retardation factor [5]. Retention behavior of nabumetone on LP was compared with its behavior on the alternative LO layers by statistical comparison of the slope (S, specific hydrophobic surface area) and y-intercept, (Rmw, basic lipophilicity parameter) of the regression plot of Rm versus methanol fraction. The retention behavior is described by the regression equation: Rm = Sφ + Rmw (where φ is the methanol fraction). Plate development cycle time for a specific methanol fraction (0.5) was set as design constraint. This was compared by recording the time required for the mobile phase (50% methanol) to traverse 7 cm path length of the various silica-supported layers.
# (§3) The engineered lipid film was validated by comparing its performance with the prior art; liquid paraffin film and octadecysilane (ODS) bonded phase, which was selected as reference.
# (§4) The computational model employed is a transformation of the planar chromatographic retardation factor Rf according to the following equation: […]
# (§5) Linear regression of the Rm values against the fraction of methanol organic modifier in the mobile phase was performed according to the equation: […]
# (§6) S, is the specific hydrophobic surface area, while Rmw is the basic lipophilicity parameter calculated from the chromatographic data. The ultimate derived lipophilicity parameter of interest is the isocratic chromatographic hydrophobicity index (φo), which signifies the methanol fraction that will produce half-maximum solute migration on the chromatogram for each compound. […] Derived lipophilicity parameter (φo) values were correlated with Log P and several ChemSketch calculated molecular descriptors to provide quantitative structure property relationships (QSPR) as previously described.
# [3] = RPTLC lipophilicity determination on liquid paraffin (LP) film; details: 5% LP film; for S (specific hydrophobic surface area): slope of Rm vs methanol fraction; for φo (isocratic chromatographic hydrophobicity index): φo = -Rmw/S, methanol modifier; for Rmw (basic lipophilicity parameter): y-intercept of Rm vs methanol fraction
# From the text: as §1, §2, §3, §4, §5, §6
# [4] = RPTLC lipophilicity determination on octadecylsilane (ODS) bonded layer; details: for S (specific hydrophobic surface area): slope of Rm vs methanol fraction; for φo (isocratic chromatographic hydrophobicity index): φo = -Rmw/S, methanol modifier
# Method: as §3, §4, §5, §6
# [5] = ref 31 (ADBA), 32 (NPX), 33 (NBT), 34 (HF); cited from earlier work
# [6] = 3.75% LO film, slope of Rm vs methanol fraction
# [7] = 3.75% LO film, y-intercept of Rm vs methanol fraction
# [8] = 3.75% LO film, φo = -Rmw/S, methanol modifier
# [9] = ODS layer, y-intercept of Rm vs methanol fraction
SMILES,"S (specific hydrophobic surface area) [2, 6]","Rmw (basic lipophilicity parameter) [2, 7]","φo (isocratic chromatographic hydrophobicity index) [2, 8]",S (specific hydrophobic surface area) [3],φo (isocratic chromatographic hydrophobicity index) [3],S (specific hydrophobic surface area) ([4]; ODS layer),"Rmw (basic lipophilicity parameter) [4, 9]",φo (isocratic chromatographic hydrophobicity index) ([4]; ODS layer),Log P (octanol/water) [5],Rmw (basic lipophilicity parameter) [3],further results
"CC(C)(C)c1ccc(C(O)CCCN2CCC(C(O)(c3ccccc3)c3ccccc3)CC2)cc1 (stereo not drawn) [Terfenadine, terfenadine]",–,–,–,–,–,–,–,–,–,–,Cardiotoxicity (QT prolongation) [1]: withdrawn from clinical use because of cardiotoxicity
"Nc1c([N+](=O)[O-])cc(C(=O)O)cc1[N+](=O)[O-] [ADBA, 4-amino-3,5-dinitrobenzoic acid]",-8.84,-0.646,-0.073,-5.99,-0.081,-1.41,-0.102,-0.073,-1.50,–,–
"CCCCN(CCCC)CCC(O)c1cc2c(Cl)cc(Cl)cc2c2cc(C(F)(F)F)ccc12 (stereo not drawn) [Halofantrine, halofantrine]",-8.13,8.40,1.03,-6.54,1.03,-4.55,4.94,1.09,3.25,6.76,–
"COc1ccc2cc(CCC(C)=O)ccc2c1 [Nabumetone, nabumetone]",-3.95,2.58,0.66,-3.48,0.70,-3.13,–,0.89,3.27,2.43,Rmw (basic lipophilicity parameter) ([2]; 1.25% LO film): 1.05; S (specific hydrophobic surface area) ([2]; 1.25% LO film): -2.33; φo (isocratic chromatographic hydrophobicity index) ([2]; 1.25% LO film): 0.45; Rmw (basic lipophilicity parameter) ([2]; 2.5% LO film): 1.94; S (specific hydrophobic surface area) ([2]; 2.5% LO film): -3.14; φo (isocratic chromatographic hydrophobicity index) ([2]; 2.5% LO film): 0.62; Rmw (basic lipophilicity parameter) ([2]; 5% LO film): 3.48; S (specific hydrophobic surface area) ([2]; 5% LO film): -4.67; φo (isocratic chromatographic hydrophobicity index) ([2]; 5% LO film): 0.75; Rmw (basic lipophilicity parameter) [4]: 2.77
